From patent US7183291B2 (Council of Scientific and Industrial Research, priority 1999, dated 2007)
Values joined by “and” are separate entries in the source; they are usually repeats but may differ in a detail not shown here. Equal values may be shown once.

Legend:
[1] = test system: sporozoites; experiment: Infectivity test: mosquito homogenates inoculated into Rhesus monkeys; type: in vivo, P. cynomolgi; conditions: 11 batches; 1.87, 2.5, 3.75 and 5.00 mg base/kg; up to 60 days of observations
Protocol: (§1) For the gametocytocidal test, batches of 3–4 day old An. Stephensi were allowed to feed on P. cynomolgi infected Rhesus monkeys at appropriate gametocytaemia level. One hour after the control (pretreatment) feeding, compound of formula 1 was administered to the monkeys at 0.63, 1.25, 1.87, 2.5, 3.75 and 5.0 mg/kg in a single dose by oral route. Post-treatment feeding of batches of healthy mosquitoes was done at different times (5–48 hours). Mosquitoes were maintained as 26±1° C. under optimal insectary conditions. The infectivity rate and the oocyst counts were recorded on day 8. Mosquitoes were further maintained in the insectary to record the formation of sporozoites and the absence of sporozoites in some of the batches was also ensured by inoculation of mosquito homogenates into native monkeys.
Infectivity tests were carried out to ensure that there was no sporozoite development in the mosquito batches found negative for oocysts on day 8 following their feeding on drug treated monkeys. Homogenates of 40–50 mosquitoes each from 11 batches fed on gametocyte carrying monkeys treated with compound 1 at 1.87, 2.5, 3.75 and 5.00 mg base/kg were inoculated into native Rhesus monkeys.

[2] = test system: G-6-PD deficient erythrocytes; experiment: Reduced glutathione (GSH) in G-6-PD deficient human erythrocytes after 3 h incubation; type: cell-based; conditions: 25 and 50 μg/ml of PQ and equivalent doses, P<0.001
Description: (§2) Drug induced haemolysis is a serious complication in persons deficient in G-6-PD enzyme. The presence of reduced glutathione (GSH) in erythrocytes control the level of oxidative metabolites. Therefore, drugs, which cause lesser oxidation of GSH level are safe. […] G-6-PD deficiency was detected by the fluorescent spot screening test and confirmed by the enzyme assay method. Heparinised blood samples were collected from each individual and after centrifugation, the packed cells were washed three times with cold saline. […] GSH levels were estimated by the method of Bentler et al [Improved Method for the Determination of Blood Glutathione, J. Lab.

[3] = test system: normal erythrocytes; experiment: Reduced glutathione (GSH) in normal human erythrocytes after 3 h incubation; type: cell-based
Description: as §2

[4] = test system: developing oocysts of P. cynomolgi; experiment: Effect on developing oocysts in An. stephensi mosquitoes (sporontocidal/oocysticidal action); type: in vivo; conditions: for % infectivity / No. of mosquitoes infected/dissected / oocyst number gut (Mean ± SD): Day 8 oocyst record
[5] = Methaemoglobin levels in Beagle dogs after 7-day oral treatment; conditions: dog, in vivo, 1.25 mg/kg
Protocol: Colony bred beagle dogs were maintained in the kennel house of the Institute and fed with a standard diet.
Treatment was administered once daily for seven doses (day 0–6), the day of the first dose being day 0. […] 5 ml. blood was collected from beagle dogs on day 0, 3, 7, 13 and 25 using potassium-oxalate crystals as anticoagulant. All the estimations/tests were conducted on the same day of collection of blood. Methaemoglobin was assayed by the method of Evelyn and Malloy (1938, J. Biol. Chem., 126, 655–662).

[6] = test system: P. cynomolgi B gametocytes; experiment: Gametocytocidal test: infectivity of gametocytes from treated P. cynomolgi infected Rhesus monkeys to An. stephensi mosquitoes; type: in vivo
Protocol: as §1, with “[…] […]” for “One hour after the control (pretreatment) feeding, compound of formula 1 was administered to the monkeys at 0.63, 1.25, 1.87, 2.5, 3.75 and 5.0 mg/kg in a single dose by oral route. Post-treatment feeding of batches of healthy mosquitoes was done at different times (5–48 hours).”

[7] = age of infection 24 hr, 50 mg/kg
[8] = age of infection 48 hr, 10 mg/kg
[9] = age of infection 48 hr, 50 mg/kg
[10] = age of infection 72 hr, 10 mg/kg
[11] = age of infection 72 hr, 50 mg/kg
[12] = age of infection 96 hr, 50 mg/kg
[13] = age of infection in mosquitoes 24 hr, fed on monkey given 10 mg/kg at −7 hr
[14] = 0.63 mg/kg single dose, feeding +5 hr
[15] = 0.63 mg/kg single dose, feeding +24 hr
[16] = 0.63 mg/kg single dose, feeding +48 hr
[17] = 0.63 mg/kg single dose, feeding −1 hr (pre-treatment)
[18] = 1.25 mg/kg single dose, feeding +5 hr
[19] = 1.25 mg/kg single dose, feeding +24 hr
[20] = 1.25 mg/kg single dose, feeding +48 hr
[21] = 1.25 mg/kg single dose, feeding −1 hr (pre-treatment)
[22] = 1.87 mg/kg single dose, feeding +24 hr
[23] = 1.87 mg/kg single dose, feeding +48 hr
[24] = 1.87 mg/kg single dose, feeding −1 hr (pre-treatment)
[25] = 3.75 mg/kg single dose, feeding +4 hr
[26] = 3.75 mg/kg single dose, feeding +5 hr
[27] = 3.75 mg/kg single dose, feeding +24 hr
[28] = 3.75 mg/kg single dose, feeding −1 hr (pre-treatment)

decrease in GSH level compared to controls [2]: statistically significant
concentration at which fall in GSH levels reached statistical significance [3]: 31250 ng/mL
GSH (mg %) Mean ± SE ([3]; dose 1.25 μg/ml): 44.08 ± 5.80 mg %
GSH (mg %) Mean ± SE ([3]; dose 6.25 μg/ml): 42.50 ± 5.85 mg %
increase of Met-Hb values [5]: 1.7 fold
melting point: 118 to 120 °C
Compound: COc1cc(NC(C)CCCN/C(C)=C2/CCOC2=O)c2ncccc2c1 (stereo not drawn) [compound 1, N^1-(3-ethylidinotetrahydrofuran-2-one)-N^4-(6-methoxy-8-quinolinyl)-1,4-pentanediamine]
monkeys developing infection after inoculation of homogenates of 40–50 mosquitoes from oocyst-negative batches [1]: None
sporontocidal/oocysticidal action on 24–96 hr old oocysts ([4]; 10–50 mg/kg): absence of sporontocidal/oocysticidal action
% infectivity [4, 7]: 85.19%
No. of mosquitoes infected/dissected [4, 7]: 23/27
oocyst number gut (Mean ± SD) [4, 7]: 67.00 ± 43.58
% infectivity [4, 8]: 100.0%
No. of mosquitoes infected/dissected [4, 8]: 20/20
oocyst number gut (Mean ± SD) [4, 8]: 133.20 ± 96.22
% infectivity [4, 9]: 78.79%
No. of mosquitoes infected/dissected [4, 9]: 26/33
oocyst number gut (Mean ± SD) [4, 9]: 46.15 ± 36.70
% infectivity [4, 10]: 88.00%
No. of mosquitoes infected/dissected [4, 10]: 22/25
oocyst number gut (Mean ± SD) [4, 10]: 20.36 ± 17.81
% infectivity [4, 11]: 86.21%
No. of mosquitoes infected/dissected [4, 11]: 25/29
oocyst number gut (Mean ± SD) [4, 11]: 27.16 ± 20.60
% infectivity [4, 12]: 69.23%
No. of mosquitoes infected/dissected [4, 12]: 18/26
oocyst number gut (Mean ± SD) [4, 12]: 40.33 ± 27.38
% infectivity [4, 13]: 85.00%
No. of mosquitoes infected/dissected [4, 13]: 17/20
oocyst number gut (Mean ± SD) [4, 13]: 144.47 ± 60.35
% infectivity [6, 14]: (45.1) %
No. of mosquitoes infected/dissected [6, 14]: 23/51
Oocyst No. per gut (Mean ± SD) [6, 14]: 10.22 ± 6.8
% infectivity [6, 15]: (32.61) %
No. of mosquitoes infected/dissected [6, 15]: 15/46
Oocyst No. per gut (Mean ± SD) [6, 15]: 2.93 ± 2.4
Parasitaemia/mm^3 Asexual [6, 15]: 30024 /mm^3
Parasitaemia/mm^3 Gametocytes [6, 15]: 1404 /mm^3
% infectivity [6, 16]: (0) %
No. of mosquitoes infected/dissected [6, 16]: 0/24
Oocyst No. per gut (Mean ± SD) [6, 16]: Nil
Parasitaemia/mm^3 Asexual [6, 16]: 23220 /mm^3
Parasitaemia/mm^3 Gametocytes [6, 16]: 756 /mm^3
% infectivity [6, 17]: (90.0) %
No. of mosquitoes infected/dissected [6, 17]: 27/30
Oocyst No. per gut (Mean ± SD) [6, 17]: 86.74 ± 39.2
Parasitaemia/mm^3 Asexual [6, 17]: 48816 /mm^3
Parasitaemia/mm^3 Gametocytes [6, 17]: 1728 /mm^3
oocyst number and percent infectivity compared to control feedings at −1 hr ([6]; 0.63 mg/kg, +5 h and +24 h post-treatment): significant reduction
sporozoites in salivary gland dissections on day 15 ([6]; 0.63 mg/kg, batches fed +5 h and +24 h): presence of sporozoites
oocysts over the midguts ([6]; 0.63 mg/kg, mosquitoes fed at +48 hr): No oocysts were observed
monkeys with marked oocyst decrease at 4–5 hr and no oocysts or sporozoites in batches fed +24 hr and +48 hr ([6]; 1.25 mg/kg): 2/2
No. of mosquitoes infected/dissected [6, 18]: 12/57 and 15/70
Oocyst No. per gut (Mean ± SD) [6, 18]: 2.17 ± 1.7 and 2.60 ± 1.7
% infectivity [6, 19]: (0) %
No. of mosquitoes infected/dissected [6, 19]: 0/36 and 0/30
Oocyst No. per gut (Mean ± SD) [6, 19]: Nil
% infectivity [6, 20]: (0) %
No. of mosquitoes infected/dissected [6, 20]: 0/24
Oocyst No. per gut (Mean ± SD) [6, 20]: Nil
Parasitaemia/mm^3 Asexual [6, 20]: 15914 /mm^3
Parasitaemia/mm^3 Gametocytes [6, 20]: 109 /mm^3
No. of mosquitoes infected/dissected [6, 21]: 34/38 and 20/47
Oocyst No. per gut (Mean ± SD) [6, 21]: 22.35 ± 11.8 and 14.40 ± 7.29
Parasitaemia/mm^3 Gametocytes [6, 21]: 1895 /mm^3 and 1026 /mm^3
monkeys with marked oocyst decrease at 4–5 hr and no oocysts or sporozoites in batches fed +24 hr and +48 hr ([6]; 1.87 mg/kg): 2/2
No. of mosquitoes infected/dissected ([6]; 1.87 mg/kg single dose, feeding +4 hr): 6/40 and 18/31
% infectivity [6, 22]: (0) %
No. of mosquitoes infected/dissected [6, 22]: 0/27 and 0/38
Oocyst No. per gut (Mean ± SD) [6, 22]: Nil and Nil**
Parasitaemia/mm^3 Gametocytes [6, 22]: 530 /mm^3 and 798 /mm^3
% infectivity [6, 23]: (0) %
No. of mosquitoes infected/dissected [6, 23]: 0/24 and 0/21
Oocyst No. per gut (Mean ± SD) [6, 23]: Nil
Parasitaemia/mm^3 Asexual [6, 23]: 7208 /mm^3 and 5130 /mm^3
Parasitaemia/mm^3 Gametocytes [6, 23]: 212 /mm^3 and 228 /mm^3
No. of mosquitoes infected/dissected [6, 24]: 25/30 and 23/25
Parasitaemia/mm^3 Asexual [6, 24]: 33602 /mm^3 and 61560 /mm^3
Parasitaemia/mm^3 Gametocytes [6, 24]: 1166 /mm^3 and 1026 /mm^3
monkeys with oocyst development completely blocked in batches fed 4–5 hr and +24 hr post-treatment ([6]; 3.75 mg/kg): 5/5
% infectivity [6, 25]: (0) %
No. of mosquitoes infected/dissected [6, 25]: 0/25 and 0/21 and 0/41
Oocyst No. per gut (Mean ± SD) [6, 25]: Nil
% infectivity [6, 26]: (0) %
No. of mosquitoes infected/dissected [6, 26]: 0/30
Oocyst No. per gut (Mean ± SD) [6, 26]: Nil**
% infectivity [6, 27]: (0) %
No. of mosquitoes infected/dissected [6, 27]: 0/28 and 0/21 and 0/30 and 0/27
Oocyst No. per gut (Mean ± SD) [6, 27]: Nil and Nil**
No. of mosquitoes infected/dissected [6, 28]: 26/27 and 15/22 and 33/40 and 22/22
Parasitaemia/mm^3 Asexual [6, 28]: 55728 /mm^3 and 45796 /mm^3 and 68320 /mm^3 and 48336 /mm^3
monkeys with oocyst development completely blocked in batches fed 4–5 hr and +24 hr post-treatment ([6]; 5.0 mg/kg): 3/3
time to render mature gametocytes non-infective to mosquitoes ([6]; 3.75 and 5.00 mg/kg): 4 to 5 h
sporozoites in salivary gland dissections, days 14–20 post infective blood meal ([6]; batches with blocked oocyst development (2.5, 3.75, 5.0 mg/kg)): did not show any sporozoites
